Experimental findings from paper PMC9502272, “A Metabolomics Approach for Predicting OATP1B-Type Transporter-Mediated Drug–Drug Interaction Liabilities” (Pharmaceutics, 2022) are described below.

This data set concerns the target T1, Oatp1b2 (Mus musculus, UniProt Q9JJL3).
T1 sequence (Q9JJL3 1-689): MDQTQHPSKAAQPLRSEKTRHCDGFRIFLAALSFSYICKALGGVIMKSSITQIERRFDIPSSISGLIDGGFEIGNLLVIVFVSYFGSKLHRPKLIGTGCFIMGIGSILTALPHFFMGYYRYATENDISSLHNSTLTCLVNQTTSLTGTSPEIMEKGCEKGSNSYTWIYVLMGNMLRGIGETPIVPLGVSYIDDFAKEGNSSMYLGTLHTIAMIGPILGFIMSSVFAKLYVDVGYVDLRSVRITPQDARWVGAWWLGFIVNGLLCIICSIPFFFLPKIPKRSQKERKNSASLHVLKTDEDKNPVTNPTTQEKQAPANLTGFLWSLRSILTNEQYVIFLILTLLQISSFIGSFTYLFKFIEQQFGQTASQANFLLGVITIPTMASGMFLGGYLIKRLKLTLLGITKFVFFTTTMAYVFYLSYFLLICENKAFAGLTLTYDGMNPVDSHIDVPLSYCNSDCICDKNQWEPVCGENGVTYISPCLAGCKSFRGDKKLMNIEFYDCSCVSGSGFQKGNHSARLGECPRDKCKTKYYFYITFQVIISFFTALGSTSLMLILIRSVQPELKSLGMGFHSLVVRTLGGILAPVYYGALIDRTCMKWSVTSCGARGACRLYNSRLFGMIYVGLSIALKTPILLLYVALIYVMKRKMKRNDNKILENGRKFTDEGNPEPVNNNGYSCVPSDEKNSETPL
Put plainly: Untargeted metabolomics of plasma from untreated wild-type and Oatp1b2(−/−) mice. To be noted: for Fold of Change KO/WT: plasma of untreated Oatp1b2-deficient (KO) vs wild-type (WT) mice, semi-quantitative, positive = higher in KO, n = 6 per group; for Mean value KO: plasma of untreated Oatp1b2-deficient mice; for Mean value KO / Mean value WT: raw area counts rescaled to median = 1; for Mean value WT: plasma of untreated wild-type mice.

Counter-ions that a name gives are not always drawn.

Description: For all experiments, age- and sex-matched mice (8–12 weeks old) were used. […] Mice with a deficiency of Oatp1b2 (Oatp1b2(−/−) mice), the single murine orthologue of OATP1B1 and OATP1B3 in humans, on a DBA/1LacJ background were kindly provided by Drs. Richard B. Kim (Western University, London, Ontario, Canada) and Jeffrey L. Stock (Pfizer, Groton, CT, USA).
Plasma samples from untreated wild-type mice and Oatp1b2(−/−) mice were analyzed for structurally named and unknown molecules using a non-targeted semi-quantitative liquid chromatography-tandem mass spectrometry (LC-MS/MS) and gas chromatography-mass spectrometry platforms (Metabolon, Durham, NC, USA). Compounds were identified by comparison with library entries of purified standards or recurrent unknown entities.

For the compound `OC[C@H]1O[C@@H](n2cnc3c(O)ncnc32)[C@H](O)[C@@H]1O` [inosine], the “Fold of Change KO/WT” value worked out at 2.07, the “Mean value KO” value worked out at 1.49 and the “Mean value WT” value is “.719”.

`CC(C)C(=O)O[C@H](CC(=O)[O-])C[N+](C)(C)C` [isobutyrylcarnitine (C4)]: the “Fold of Change KO/WT” value came to 1.40, the “Mean value KO” value worked out at 1.15 and the “Mean value WT” value was “.817”.

In the case of `CC(C)CCC(=O)NCC(=O)O` [isocaproylglycine], the “Fold of Change KO/WT” value came out at 1.57, the “Mean value KO” value is listed as 1.28 and the “Mean value WT” value is listed as “.815”.

In the case of `O=C1CC(C(=O)O)C(C(=O)O)O1` (stereo not drawn) [isocitric lactone], the “Fold of Change KO/WT” value stood at 1.22, the “Mean value KO” value was found to be 1.08 and the “Mean value WT” value is listed as “.884”.

Regarding `C[C@H](CCC(=O)O)[C@H]1CC[C@H]2[C@@H]3C[C@H](O)[C@@H]4C[C@@H](O)CC[C@]4(C)[C@H]3CC[C@]12C` [isohyodeoxycholate], the “Fold of Change KO/WT” value is reported as 2.46, the “Mean value KO” value was 0.940 and the “Mean value WT” value is reported as “.382”.

Consider `CCCCC/C=C\C/C=C\CCCCCCCC(N)=O` [linoleamide (18:2n6)], for which the “Fold of Change KO/WT” value worked out at 1.36, the “Mean value KO” value is 1.29 and the “Mean value WT” value is on record as “.945”.

In the case of `CCCCC/C=C\C/C=C\CCCCCCCC(=O)O[C@H](CC(=O)[O-])C[N+](C)(C)C` [linoleoylcarnitine (C18:2)], the “Fold of Change KO/WT” value is recorded as 1.62, the “Mean value KO” value amounted to 1.36 and the “Mean value WT” value is given as “.838”.

Consider `CCCCCCCCCCCCCCCCC(N)=O` [margaramide (17:0)], for which the “Fold of Change KO/WT” value was 1.45, the “Mean value KO” value is 1.19 and the “Mean value WT” value was “.826”.

As to `CCCCCCCCCCCCCCCCC(=O)OC(CC(=O)[O-])C[N+](C)(C)C` (stereo not drawn) [margaroylcarnitine (C17)], the “Fold of Change KO/WT” value came out at 1.59, the “Mean value KO” value came to 1.21 and the “Mean value WT” value is listed as “.764”.

For `COP(=O)(O)O` [methylphosphate], the “Fold of Change KO/WT” value turned out to be 1.27, the “Mean value KO” value is given as 1.08 and the “Mean value WT” value is listed as “.848”.

For the compound `CC(O)(CCO)CC(=O)O` (stereo not drawn) [mevalonate], the “Fold of Change KO/WT” value was 1.24, the “Mean value KO” value was 1.15 and the “Mean value WT” value was “.925”.

For `CCCCCCCCCCCCCC(=O)O[C@H](CC(=O)[O-])C[N+](C)(C)C` [myristoylcarnitine (C14)], the “Fold of Change KO/WT” value came to 1.39, the “Mean value KO” value is on record as 1.26 and the “Mean value WT” value is “.904”.

As for `O=C(O)CCCCCCCCCCCCCCCCCC(=O)O` [nonadecanedioate (C19-DC)], the “Fold of Change KO/WT” value came out at 1.44, the “Mean value KO” value was 1.30 and the “Mean value WT” value is “.902”.

Consider `O=C(O)CCCCCCCCCCCCCCCCC(=O)O` [octadecanedioate (C18-DC)], for which the “Fold of Change KO/WT” value came out at 1.38, the “Mean value KO” value amounted to 1.27 and the “Mean value WT” value was “.916”.

Take `C[N+](C)(C)CC(CC(=O)[O-])OC(=O)CCCCCCCCCCCCCCCCC(=O)O` (stereo not drawn) [octadecanedioylcarnitine (C18-DC)]: the “Fold of Change KO/WT” value was 1.16, the “Mean value KO” value stood at 1.00 and the “Mean value WT” value is on record as “.860”.

With `CCCCCCCC(=O)O[C@H](CC(=O)O)C[N+](C)(C)C` [octanoylcarnitine (C8)], the “Fold of Change KO/WT” value was found to be 1.62, the “Mean value KO” value stood at 1.47 and the “Mean value WT” value is listed as “.910”.

Take `CCCCCCCC/C=C\CCCCCCCC(N)=O` [oleamide]: the “Fold of Change KO/WT” value was found to be 1.38, the “Mean value KO” value came to 1.22 and the “Mean value WT” value was “.886”.

For `CCCCCCCC/C=C\CCCCCCCC(=O)O[C@H](CC(=O)[O-])C[N+](C)(C)C` [oleoylcarnitine (C18:1)], the “Fold of Change KO/WT” value is on record as 1.56, the “Mean value KO” value is 1.40 and the “Mean value WT” value is “.900”.

With `Cc1ccc(O[C@@H]2O[C@H](C(=O)O)[C@@H](O)[C@H](O)[C@H]2O)cc1` [p-cresol glucuronide], the “Fold of Change KO/WT” value is recorded as 11.8, the “Mean value KO” value worked out at 5.92 and the “Mean value WT” value is on record as “.503”.

For the compound `Cc1ccc(OS(=O)(=O)O)cc1` [p-cresol sulfate], the “Fold of Change KO/WT” value is 9.29, the “Mean value KO” value was 4.66 and the “Mean value WT” value is listed as “.501”.

For the compound `CCCCCCCCCCCCCCCC(N)=O` [palmitamide (16:0)], the “Fold of Change KO/WT” value was determined as 1.40, the “Mean value KO” value came to 1.18 and the “Mean value WT” value is recorded as “.840”.

`CCCCCCC=CCCCCCCCC(=O)OC(CC(=O)[O-])C[N+](C)(C)C` (stereo not drawn) [palmitoleoylcarnitine (C16:1)]: the “Fold of Change KO/WT” value was found to be 1.63, the “Mean value KO” value was found to be 1.54 and the “Mean value WT” value is reported as “.943”.

As to `CCCCCCCCCCCCCCC(=O)O[C@H](CC(=O)[O-])C[N+](C)(C)C` [pentadecanoylcarnitine (C15)], the “Fold of Change KO/WT” value stood at 1.77, the “Mean value KO” value is given as 1.28 and the “Mean value WT” value is recorded as “.723”.

With `O=C(O)[C@H]1O[C@@H](Oc2ccccc2)[C@H](O)[C@@H](O)[C@@H]1O` [phenol glucuronide], the “Fold of Change KO/WT” value came to 1.87, the “Mean value KO” value came out at 1.28 and the “Mean value WT” value is recorded as “.684”.

For `O=S(=O)(O)Oc1ccccc1` [phenol sulfate], the “Fold of Change KO/WT” value is 1.40, the “Mean value KO” value was determined as 1.23 and the “Mean value WT” value is reported as “.879”.

For `O=C(O)CC[C@H](NC(=O)Cc1ccccc1)C(=O)O` [phenylacetylglutamate], the “Fold of Change KO/WT” value is 1.46, the “Mean value KO” value is given as 1.24 and the “Mean value WT” value is recorded as “.850”.

Regarding `O=C(O)CNC(=O)CCc1ccccc1` [phenylpropionylglycine], the “Fold of Change KO/WT” value turned out to be 2.41, the “Mean value KO” value is reported as 1.58 and the “Mean value WT” value is listed as “.656”.

In the case of `O=C(O)C1CCCCN1` (stereo not drawn) [pipecolate], the “Fold of Change KO/WT” value is recorded as 1.12, the “Mean value KO” value came out at 1.05 and the “Mean value WT” value was “.938”.

Regarding `Cc1ncc(CO)c(C=O)c1O` [pyridoxal], the “Fold of Change KO/WT” value was determined as 1.47, the “Mean value KO” value was 1.28 and the “Mean value WT” value is “.868”.

For the compound `Cc1ncc(CO)c(CN)c1O` [pyridoxamine], the “Fold of Change KO/WT” value was found to be 1.77, the “Mean value KO” value is 1.42 and the “Mean value WT” value was “.805”.

On to `Cc1ncc(CO)c(C(=O)O)c1O` [pyridoxate], for which the “Fold of Change KO/WT” value was determined as 1.34, the “Mean value KO” value is on record as 1.21 and the “Mean value WT” value is reported as “.902”.

Regarding `O=C(O)CCCCCCCCC(=O)O` [sebacate (C10-DC)], the “Fold of Change KO/WT” value is recorded as 1.44, the “Mean value KO” value is 1.20 and the “Mean value WT” value was “.833”.

`CCCCCCCCCCCCCCCCCC(N)=O` [stearamide (18:0)]: the “Fold of Change KO/WT” value was found to be 1.49, the “Mean value KO” value is recorded as 1.19 and the “Mean value WT” value is recorded as “.800”.
